Measured values reported in patent US8124389B2, “Crystal structure of aldehyde dehydrogenase and methods of use thereof” (The Board of Trustees of the Leland Stanford Junior …, priority 2008, dated 2012).
Numbering of substitutions follows the chain as printed. Each block holds one compound with its values, some of them ahead of it.

Assays:
Format in all cases: biochemical
[1] = target: T1, ALDH2*2 (Homo sapiens, UniProt P05091, E504K); experiment: Dehydrogenase activity kinetic assay (25 mM BES, pH 7.5); conditions: for Hill Slope / Vmax^(app) of daidzin inhibition curve / Vmin^(app) of daidzin inhibition curve: 100 μM propionaldehyde, 10 mM NAD+
T1 construct: made in house; host or cells: E. coli
T1 sequence (P05091 18-517 E504K): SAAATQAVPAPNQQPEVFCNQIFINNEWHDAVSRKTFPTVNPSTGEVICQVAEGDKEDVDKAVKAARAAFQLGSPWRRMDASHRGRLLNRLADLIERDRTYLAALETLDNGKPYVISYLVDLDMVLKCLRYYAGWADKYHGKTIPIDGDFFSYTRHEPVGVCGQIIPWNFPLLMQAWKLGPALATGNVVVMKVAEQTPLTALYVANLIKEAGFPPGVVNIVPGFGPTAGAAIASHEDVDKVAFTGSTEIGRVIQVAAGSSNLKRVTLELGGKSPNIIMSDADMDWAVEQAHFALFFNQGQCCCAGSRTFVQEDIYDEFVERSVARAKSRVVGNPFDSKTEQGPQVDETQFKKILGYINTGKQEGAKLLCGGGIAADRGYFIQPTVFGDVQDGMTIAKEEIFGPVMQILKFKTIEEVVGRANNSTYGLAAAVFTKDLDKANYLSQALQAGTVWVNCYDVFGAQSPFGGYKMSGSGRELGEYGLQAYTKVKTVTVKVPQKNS
Procedure: (§1) (A) Wild-type ALDH2 at 0 μM or 10 μM Alda-1 and (B) ALDH2*2 at 0 μM or 50 μM Alda-1. NAD^+concentrations were 0.5 mM for wild-type ALDH2 and 10 mM for ALDH2*2. Lines show fits to 4-parameter logistic curve.
(§2) ALDH2 and ALDH2*2 were produced and purified using an E. coli expression system as previously described (Larson et al., 2005, J. Biol. Chem. 280, 30550-30556 and Larson et al., 2007, J. Biol. Chem., 282, 12940-12950). All enzyme assays were performed in 25 mM BES, pH 7.5 and included a final concentration of 2% (v/v) DMSO as a cosolvent in all cases whether or not Alda-1 was present. Enzyme concentrations in the dehydrogenase assays were between 0.03 and 0.06 μM for ALDH2 and between 0.3 and 0.5 μM for ALDH2*2. Esterase assays utilized 0.97 mM para-nitrophenylacetate (pNPA) as a standard substrate concentration and enzyme concentrations for 0.06 μM for ALDH2 and 0.7 μM for ALDH2*2. All kinetic data were analyzed with SigmaPlot (v10.0, StatSys). All activation data for the dehydrogenase and esterase reactions were fit to the expression v=Vo+{(Vmax[S])/(KAct+[S])}, where Vo is the initial velocity for the reaction in the absence of activator and KAct is the concentration of activator required for half-maximal activation. All single-vary experiments for Alda-1 activation utilized a minimum of 10 different concentrations across a range from 0-200 μM. […] All data represent the average of a minimum of three independent experiments with at least two different enzyme preparations.

[2] = target: T2, wild-type ALDH2 (Homo sapiens, UniProt P05091); experiment: as above; conditions: for Hill Slope / Vmax^(app) of daidzin inhibition curve / Vmin^(app) of daidzin inhibition curve: 100 μM propionaldehyde, 0.5 mM NAD+; for Vm/Vo / Vmax^(app) / EC50: 25 mM BES, pH 7.5, 0.5 mM NAD+; for EC50: read-out: KAct^(app)
T2 construct: made in house; host or cells: E. coli
T2 sequence (P05091 18-517): T1 sequence (P05091 18-517 E504K) with K487E
Procedure: as §1, §2

[3] = target: T3, homotetrameric wild type ALDH2*1/*1 (Homo sapiens, UniProt P05091); experiment: Enzyme activation of recombinant ALDH2 proteins by Alda-1 (FIG. 2); conditions: Alda-1 at 100 μM; 20 μg recombinant protein
T3 construct: made in house
T3 sequence (P05091 18-517): T1 sequence (P05091 18-517 E504K) with K487E
Procedure: (§3) FIG. 2 depicts enzyme activation of homotetrameric wild type ALDH2 (homo wild type), heterotetrameric ALDH2 (hetero wild type/mutant; comprising a mixture of wild-type and mutant monomers), and homotetrameric mutant ALDH2 by Alda-1(100 μM). Enzymatic activity of recombinant ALDH2 proteins (20 μg each) is presented in percentage using homotetrameric wild type enzyme as a 100% control (n=3, **p<0.01 vs. control).
(§4) Alda-1 is an ALDH2 agonist. […] Chen et al. (2008) Science 321:1493-1495; PMID: 18787169.

[4] = target: T4, homotetrameric mutant ALDH2*2 (Homo sapiens, UniProt P05091, E504K); experiment: as above; conditions: Alda-1 at 100 μM; 20 μg recombinant protein
T4 construct: made in house
T4 sequence (P05091 18-517 E504K): T1 sequence (P05091 18-517 E504K)
Procedure: as §3, §4

[5] = target: T5, heterotetrameric ALDH2 (wild type/mutant) (Homo sapiens, UniProt P05091, E504K); experiment: as above; conditions: Alda-1 at 100 μM; 20 μg recombinant protein
T5 construct: made in house
T5 sequence (P05091 18-517): T1 sequence (P05091 18-517 E504K) with K487E
T5 sequence (P05091 18-517 E504K): T1 sequence (P05091 18-517 E504K)
Procedure: as §3, §4

[6] = target: T1, ALDH2*2; experiment: Dehydrogenase activity kinetic assay (25 mM BES, pH 7.5)
[7] = target: T1, ALDH2*2; experiment: Esterase activity assay (p-nitrophenylacetate hydrolysis)
Procedure: as §2
(§5) The ability of Alda-1 to stimulate the hydrolysis of p-nitrophenylacetate both in the presence and absence of coenzyme was examined.

[8] = target: T2, wild-type ALDH2; experiment: as above; conditions: for Vmax / EC50 / Vo: 0.97 mM p-Nitrophenylacetate; for EC50: read-out: KAct^(app); for Vo: velocity in absence of activator
Procedure: as §2, §5

[9] = fixed 50 μM Alda-1, NAD+ as varied activator, 0.97 mM p-Nitrophenylacetate

SMILES: O=c1c(-c2ccc(O)cc2)coc2cc(O[C@@H]3O[C@H](CO)[C@@H](O)[C@H](O)[C@H]3O)ccc12 [Daidzin, daidzin, reference compound]
Hill Slope ([1]; 50 μM Alda-1): 1.1 +/− 0.1
Vmax^(app) of daidzin inhibition curve ([1]; 50 μM Alda-1): 23.0 ± 1.7 min⁻¹
Vmin^(app) of daidzin inhibition curve ([1]; 50 μM Alda-1): 0.2 ± 0.2 min⁻¹
Hill Slope ([1]; no Alda-1): 1.1 +/− 0.1
Vmax^(app) of daidzin inhibition curve ([1]; no Alda-1): 11.6 ± 1.3 min⁻¹
Vmin^(app) of daidzin inhibition curve ([1]; no Alda-1): 0.2 ± 0.6 min⁻¹
Hill Slope ([2]; 10 μM Alda-1): 1.0 +/− 0.1
Vmax^(app) of daidzin inhibition curve ([2]; 10 μM Alda-1): 74.9 ± 12.1 min⁻¹
Vmin^(app) of daidzin inhibition curve ([2]; 10 μM Alda-1): 2.5 ± 5.2 min⁻¹
Hill Slope ([2]; no Alda-1): 0.9 +/− 0.3
Vmax^(app) of daidzin inhibition curve ([2]; no Alda-1): 61.5 ± 6.1 min⁻¹
Vmin^(app) of daidzin inhibition curve ([2]; no Alda-1): 5.1 ± 4.7 min⁻¹

effect on daidzin inhibition ([1]; 50 μM Alda-1): antagonized daidzin inhibition
effect on ALDH2 activity with phenylacetaldehyde or DACA [2]: little effect
effect on daidzin inhibition ([2]; 10 μM Alda-1): antagonized daidzin inhibition
effect on dehydrogenase activity with aromatic aldehydes (benzaldehyde, phenylacetaldehyde, DACA) ([2]; 20 μM Alda-1, saturating concentrations of substrate, pH 7.5): minimal effects
Vm/Vo ([2]; 100 μM Acetaldehyde): 1.8 +/− 0.1
Vmax^(app) ([2]; 100 μM Acetaldehyde): 107 ± 12 min⁻¹
EC50 ([2]; 100 μM Acetaldehyde): 0.98 µM
Vm/Vo ([2]; 100 μM Butyraldehyde): 1.3 +/− 0.1
Vmax^(app) ([2]; 100 μM Butyraldehyde): 86.6 ± 3.1 min⁻¹
EC50 ([2]; 100 μM Butyraldehyde): 1.8 µM
Vm/Vo ([2]; 100 μM Propionaldehyde): 1.7 +/− 0.1
Vmax^(app) ([2]; 100 μM Propionaldehyde): 78.5 ± 9.6 min⁻¹
EC50 ([2]; 100 μM Propionaldehyde): 5.1 µM
effect on ALDH2 activity with phenylacetaldehyde or DACA at high concentrations ([2]; Alda-1 >100 μM): weakly inhibitory
effect on activity with benzaldehyde ([2]; up to maximum concentration used, 200 μM Alda-1): little effect
increase of enzymatic activity [3]: 2.1 fold
increase of enzymatic activity [4]: 11 fold
increase of enzymatic activity [5]: 2.2 fold
EC50 ([6]; covariation NAD+ (0.5-10 mM) and Alda-1 (0 to 30 μM), non-essential activator fit, read-out: Kact): 16 ± 3 µM
decrease of apparent Km for NAD+ ([6]; covariation NAD+ and Alda-1): 6.7 fold
increase of Vmax ([6]; covariation NAD+ and Alda-1): 2 fold
β-factor (modifier on Vmax) ([6]; covariation NAD+ and Alda-1, non-essential activator fit): 2.0±0.2
Vmax ([7]; 1.0 mM NAD+, 0.97 mM p-Nitrophenylacetate): 14.7 ± 1.3 min⁻¹
EC50 ([7]; 1.0 mM NAD+, 0.97 mM p-Nitrophenylacetate, read-out: KAct^(app)): 11.2 µM
Vo ([7]; 1.0 mM NAD+, 0.97 mM p-Nitrophenylacetate, velocity in absence of activator): 1.36 ± 0.28 min⁻¹
increase of ester hydrolysis ([7]; combined Alda-1 and NAD+): over 100 fold
Vmax [7, 9]: 49.5 ± 4.3 min⁻¹
Vo [7, 9]: 0.64 ± 0.19 min⁻¹
Vmax ([7]; no NAD+, 0.97 mM p-Nitrophenylacetate): 2.3 ± 0.2 min⁻¹
EC50 ([7]; no NAD+, 0.97 mM p-Nitrophenylacetate, read-out: KAct^(app)): 16.1 µM
Vo ([7]; no NAD+, 0.97 mM p-Nitrophenylacetate, velocity in absence of activator): 0.40 ± 0.03 min⁻¹
EC50 ([7]; with Alda-1, read-out: half-maximal activating concentration of NAD+ for the esterase reaction in presence of Alda-1 (lowered from 7.5 mM)): 2800 µM
Vmax ([8]; 0.5 mM NAD+): 248 ± 22 min⁻¹
EC50 ([8]; 0.5 mM NAD+): 2.6 µM
Vo ([8]; 0.5 mM NAD+): 96.3 ± 2.2 min⁻¹
Vmax (second line, paired with Ki^(app)) ([8]; 0.5 mM NAD+, higher Alda-1 concentrations, antagonism with NAD+): 242 ± 14 min⁻¹
Ki ([8]; 0.5 mM NAD+, higher Alda-1 concentrations, antagonism with NAD+, read-out: Ki^(app)): 328 µM
increase of ester hydrolysis ([8]; combined Alda-1 and NAD+): 10 fold
Vmax ([8]; no NAD+): 181 ± 6.8 min⁻¹
EC50 ([8]; no NAD+): 3.4 µM
Vo ([8]; no NAD+): 24.9 ± 2.0 min⁻¹
SMILES: O=C(NCc1ccc2c(c1)OCO2)c1c(Cl)cccc1Cl [Alda-1, N-(1,3-benzodioxol-5-ylmethyl)-2,6-dichlorobenzamide]
